Source: patent US9296741B2, “Bromodomain inhibitors” (priority 2012, dated 2016)

Columns and labels:
[1] = Rat liver microsome stability assay; assay type: in vitro ADME; details: rat liver microsomes (male Sprague-Dawley), 0.5 μM test compound, 0.25 mg/mL microsomal protein, pH 7.4, 37° C.; read-out: Stability in rat liver microsomes (t1/2 in minutes)
[2] = molecular target: human BRD4 second bromodomain (BDII_E352-M457) (Homo sapiens (Human), UniProt O60885); assay: TR-FRET bromodomain binding assay, BRD4 second bromodomain
[3] = molecular target: human BRD4 first bromodomain (BDI_K57-E168) (Homo sapiens (Human), UniProt O60885); assay: TR-FRET bromodomain binding assay, BRD4 first bromodomain
[4] = system: LPS induced IL-6 production; assay: LPS (lipopolysaccharide) induced IL-6 production mouse assay; assay type: in vivo; details: Mus musculus, read-out: Inhibition of LPS induced IL-6 production in Mice, % inhibition at 3 mg/kg; 3 mg/kg oral, 1 h before LPS; serum IL-6 2 h after LPS
[5] = system: breast cancer cell line MX-1; assay: MX-1 cell line proliferation assay; assay type: cell-based, human; details: Homo sapiens, MX1, 72 h; MX-1 cells, 3-day proliferation, Cell Titer Glo; read-out: Cellular proliferation: EC50
[6] = Mouse liver microsome stability assay; assay type: in vitro ADME; details: male, CD1, mouse, microsomes, pH 7.4
[7] = Human liver microsome stability assay; assay type: in vitro ADME; details: both sexes, human, microsomes, pH 7.4

SMILES	half-life at 0.5 μM [1]	Ki [2]	Ki [3]	EC50 [5]	half-life at 0.5 μM [6]	half-life at 0.5 μM [7]	inhibition in vivo at 3 mg/kg [4]
Cn1cc(-c2cc(S(C)(=O)=O)ccc2OCC2(C)CC2)c2cc[nH]c2c1=O [Example 231, 6-methyl-4-{2-[(1-methylcyclopropyl)methoxy]-5-(methylsulfonyl)phenyl}-1,6-dihydro-7H-pyrrolo[2,3-c]pyridin-7-one]	> 120 min	6.7 nM	3.7 nM	6.3 nM	72 min	33 min	51%
Cn1cc(-c2cc(S(N)(=O)=O)cnc2Oc2ccc(F)cc2F)c2cc[nH]c2c1=O [Example 242, 6-(2,4-difluorophenoxy)-5-(6-methyl-7-oxo-6,7-dihydro-1H-pyrrolo[2,3-c]pyridin-4-yl)pyridine-3-sulfonamide]	86 min	5.8 nM	36.5 nM	289 nM	> 120 min	> 120 min	46%
CCS(=O)(=O)Nc1ccc(Oc2c(F)cc(F)cc2F)c(-c2cn(C)c(=O)c3[nH]ccc23)c1 [Example 62, N-[3-(6-methyl-7-oxo-6,7-dihydro-1H-pyrrolo[2,3-c]pyridin-4-yl)-4-(2,4,6-trifluorophenoxy)phenyl]ethanesulfonamide]	45 min	1.9 nM	3 nM	7.9 nM	25 min	64 min	67%
Cn1cc(-c2cc(S(C)(=O)=O)cnc2Oc2ccc(F)cc2F)c2cc[nH]c2c1=O [Example 288, 4-[2-(2,4-difluorophenoxy)-5-(methylsulfonyl)pyridin-3-yl]-6-methyl-1,6-dihydro-7H-pyrrolo[2,3-c]pyridin-7-one]	> 120 min	53.9 nM	71.9 nM	173 nM	> 120 min	85 min	60%
Cn1cc(-c2cc(S(C)(=O)=O)ccc2Oc2ccc(Cl)cc2)c2cc[nH]c2c1=O [Example 154, 4-[2-(4-chlorophenoxy)-5-(methylsulfonyl)phenyl]-6-methyl-1,6-dihydro-7H-pyrrolo[2,3-c]pyridin-7-one]	66 min	13.1 nM	20.8 nM	65.5 nM	18 min	42 min	73%
Cn1cc(-c2cc(S(C)(=O)=O)ccc2Oc2ccc(F)cc2F)c2cc(CO)[nH]c2c1=O [Example 276, 4-[2-(2,4-difluorophenoxy)-5-(methylsulfonyl)phenyl]-2-(hydroxymethyl)-6-methyl-1,6-dihydro-7H-pyrrolo[2,3-c]pyridin-7-one]	82 min	17.1 nM	11.4 nM	149 nM	71 min	> 120 min	25%
Cn1cc(-c2cc(S(C)(=O)=O)ccc2OC2CCOC2)c2cc[nH]c2c1=O (stereo not drawn) [Example 205, 6-methyl-4-[5-(methylsulfonyl)-2-(tetrahydrofuran-3-yloxy)phenyl]-1,6-dihydro-7H-pyrrolo[2,3-c]pyridin-7-one]	81 min	10.2 nM	6.2 nM	39.1 nM	118 min	> 120 min	48%
Cn1cc(-c2cc(NS(C)(=O)=O)ccc2Oc2ccccc2C(F)(F)F)c2cc[nH]c2c1=O [Example 32, N-{3-(6-methyl-7-oxo-6,7-dihydro-1H-pyrrolo[2,3-c]pyridin-4-yl)-4-[2-(trifluoromethyl)phenoxy]phenyl}methanesulfonamide]	82 min	7.5 nM	16 nM	83.3 nM	32 min	24 min	69%
Cn1cc(-c2cc(S(C)(=O)=O)ccc2Oc2ccc(F)cc2F)c2cc[nH]c2c1=O [Example 138, 4-[2-(2,4-difluorophenoxy)-5-(methylsulfonyl)phenyl]-6-methyl-1,6-dihydro-7H-pyrrolo[2,3-c]pyridin-7-one]	51 min	9.5 nM	16.7 nM	85.1 nM	45 min	52 min	72%
Cn1cc(-c2cc(S(=O)(=O)C3CC3)ccc2Oc2ccc(F)cc2F)c2cc[nH]c2c1=O [Example 290, 4-[5-(cyclopropylsulfonyl)-2-(2,4-difluorophenoxy)phenyl]-6-methyl-1,6-dihydro-7H-pyrrolo[2,3-c]pyridin-7-one]	48 min	1.9 nM	5 nM	36.2 nM	52 min	73 min	64%
Cn1cc(-c2cc(S(C)(=O)=O)ccc2Oc2cccc(N)c2)c2cc[nH]c2c1=O [Example 166, 4-[2-(3-aminophenoxy)-5-(methylsulfonyl)phenyl]-6-methyl-1,6-dihydro-7H-pyrrolo[2,3-c]pyridin-7-one]	23 min	3.6 nM	10.9 nM	48.2 nM	22 min	85 min	44%
Cn1nc(-c2cc(NS(C)(=O)=O)ccc2Oc2ccc(F)cc2F)c2cc[nH]c2c1=O [Example 159, N-[4-(2,4-difluorophenoxy)-3-(6-methyl-7-oxo-6,7-dihydro-1H-pyrrolo[2,3-d]pyridazin-4-yl)phenyl]methanesulfonamide]	107 min	20.7 nM	37 nM	62.4 nM	59 min	89 min	58%

Molecules with a lower Ki [2], results first:

half-life at 0.5 μM [1]	Ki [2]	Ki [3]	EC50 [5]	half-life at 0.5 μM [6]	half-life at 0.5 μM [7]	SMILES	inhibition in vivo at 3 mg/kg [4]
6 min	1.7 nM	6.4 nM	52 nM	34 min	43 min	Cn1cc(-c2cc(S(C)(=O)=O)ccc2Oc2ccccc2)c2cc[nH]c2c1=O [Example 85, 6-methyl-4-[5-(methylsulfonyl)-2-phenoxyphenyl]-1,6-dihydro-7H-pyrrolo[2,3-c]pyridin-7-one]	80%
	1.6 nM	1.3 nM	9.3 nM	55 min		CCS(=O)(=O)c1ccc(OCC2CC2)c(-c2cn(C)c(=O)c3[nH]ccc23)c1 [Example 198, 4-[2-(cyclopropylmethoxy)-5-(ethylsulfonyl)phenyl]-6-methyl-1,6-dihydro-7H-pyrrolo[2,3-c]pyridin-7-one]	66%
40 min	1.6 nM	0.84 nM	18.7 nM	23 min	> 120 min	Cn1cc(-c2cc(NS(C)(=O)=O)ccc2OC2CCC(F)(F)CC2)c2cc[nH]c2c1=O [Example 59, N-{4-[(4,4-difluorocyclohexyl)oxy]-3-(6-methyl-7-oxo-6,7-dihydro-1H-pyrrolo[2,3-c]pyridin-4-yl)phenyl}methanesulfonamide]	54%
16 min	1.3 nM	1.9 nM	26.4 nM	5 min	13 min	CCS(=O)(=O)c1ccc(O[C@H]2CC[C@@H](OC)CC2)c(-c2cn(C)c(=O)c3[nH]ccc23)c1 [Example 248, 4-{5-(ethylsulfonyl)-2-[(cis-4-methoxycyclohexyl)oxy]phenyl}-6-methyl-1,6-dihydro-7H-pyrrolo[2,3-c]pyridin-7-one]	82%
82 min	1.3 nM	5.4 nM	27.7 nM	25 min	66 min	CCS(=O)(=O)c1ccc(Oc2ccc(F)cc2F)c(-c2cn(C)c(=O)c3[nH]ccc23)c1 [Example 168, 4-[2-(2,4-difluorophenoxy)-5-(ethylsulfonyl)phenyl]-6-methyl-1,6-dihydro-7H-pyrrolo[2,3-c]pyridin-7-one]	70%
58 min	1.2 nM	1 nM	6.3 nM	29 min	34 min	CCS(=O)(=O)c1ccc(O[C@H]2CC[C@H](OC)CC2)c(-c2cn(C)c(=O)c3[nH]ccc23)c1 [Example 260, 4-{5-(ethylsulfonyl)-2-[(trans-4-methoxycyclohexyl)oxy]phenyl}-6-methyl-1,6-dihydro-7H-pyrrolo[2,3-c]pyridin-7-one]	66%
8 min	1.1 nM	2.1 nM	14.8 nM	32 min	11 min	Cn1cc(-c2cc(S(C)(=O)=O)ccc2NC2CCCCC2)c2cc[nH]c2c1=O [Example 147, 4-[2-(cyclohexylamino)-5-(methylsulfonyl)phenyl]-6-methyl-1,6-dihydro-7H-pyrrolo[2,3-c]pyridin-7-one]	61%
> 120 min	0.78 nM	1.1 nM	3.3 nM	63 min	103 min	Cn1cc(-c2cc(S(N)(=O)=O)ccc2NCC2CC2)c2cc[nH]c2c1=O [Example 238, 4-[(cyclopropylmethyl)amino]-3-(6-methyl-7-oxo-6,7-dihydro-1H-pyrrolo[2,3-c]pyridin-4-yl)benzenesulfonamide]	69%
